# Results as given in patent US20250009763A1, “METHODS FOR EXTENDING LIFESPAN AND/OR DELAYING AGING” (priority 2023, published 2025).
# Test system: yeast BY4741 (WT)
# Test: Micromanipulation assay of replicative lifespan (RLS)
# Format: cell-based, Saccharomyces cerevisiae
# Settings: 25 μM; FIG. 1F
# Description: The micromanipulation of the yeast cells was carried out as follows. Prior to analysis, yeast strains BY4741 (WT), BY4741-fob1Δ (fob1Δ), or BY4741-sir2Δfob1Δ (sir2Δfob1Δ) were plated onto fresh solid YEPD medium and grown at 30° C. for two days. Then, individual colonies were picked and grown in solid YEPD media containing: (1) dimethyl sulfoxide (DMSO), (2) 10, 25, or 50 μM PN6, or (3) 25 μM β-sitosterol at 30° C. overnight, and a small number of yeast cells were then plated onto a fresh YEPD plate for lifespan analysis. After overnight growth on the lifespan plates, the cells were arrayed on the plate using a micromanipulator and allowed to grow for approximately 3 hours. Virgin daughter cells were selected and subjected to lifespan analysis. In the lifespan experiments, the plates were incubated at 30° C. during the day and stored at 4° C. overnight. Each experiment consisted of more than 50 mother cells and was independently repeated three times.
structure (smiles),measurement,value
"CC[C@H](CC[C@@H](C)[C@H]1CC[C@H]2[C@@H]3CC=C4C[C@@H](O)CC[C@]4(C)[C@H]3CC[C@]12C)C(C)C [3-sitosterol, β-sitosterol]",extension of the RLS of yeast,not seen
